According to publication PMC6499206, “Quantification of Volatile Metabolites Derived From Garlic (Allium sativum) in Human Urine” (Frontiers in Nutrition, 2019):

Experiment: Quantification of garlic-derived metabolites in human urine after ingestion of 3 g raw garlic (SIDA, SAFE, HRGC-MS / HRGC-GC-MS)
Assay type: in vivo
Settings: for metabolite concentration in urine / metabolite concentration in urine, creatinine-normalized: 3 g raw garlic
Text: Human urine samples were obtained from 18 volunteers (age 22–38 years, mean 27 years; 11 females, 7 males); thereby, one volunteer conducted the whole experimental series twice. At the time of examination, volunteers reported no known illness that might have potentially influenced the metabolism or the excretion of urine. The test persons were instructed to avoid foods that were rich in sulfur-containing substances at the testing day as well as 2 days preceding the testing day, namely garlic, onion, wild garlic, chives, cabbage, and leek, and were only allowed to consume the garlic sample provided in the course of the experiments. Additionally, subjects were asked to keep records of the food (including food supplements) and beverages they consumed during these 3 testing days. Generally, the overall panelists' requirements were in accordance with our previous studies ([5], [16]).
On the sampling day, the outer garlic cloves of a whole garlic bulb were peeled and cut into ~3 mm cubes by using a garlic cutter (Genius GmbH, Limburg/Lahn, Germany). Subsequently these cubes were thoroughly mixed and aliquoted into 3 g portions. Three to four test persons conducted the experiment at the same day. Each test person was asked to ingest a garlic portion of 3 g. In total, eight consecutive urine samples were provided by each test person, comprising one whole urine set. The samples were collected in sterile brown glass bottles, with sampling times as follows: one sample was provided directly prior to garlic consumption. The series of the second to eighth sample was then obtained at about 0.5, 1, 2, 4, 6, 8, and 24 h after garlic consumption, respectively. Between the first urine sample (prior to garlic consumption) and the seventh urine sample (8 h after garlic consumption) test persons only spent urine at the specific time points mentioned before. Another sample was provided at the next morning (24 h after garlic consumption). Between the samples provided 8 and 24 h after garlic consumption no urine was collected. All samples were immediately placed into a −80°C freezer and were kept frozen until further analysis.
The samples of each set were termed according to their sampling time. The following list provides the time intervals that are related to the respective sample name: • - pre: before garlic consumption • - 0.5 h post: 0.4–0.8 h after garlic consumption • - 1 h post: 0.9–1.3 h after garlic consumption • - 2 h post: 1.8 h−2.2 h after garlic consumption • - 4 h post: 3.8–4.4 h after garlic consumption • - 6 h post: 5.8–6.4 h after garlic consumption • - 8 h post: 7.8–8.4 h after garlic consumption • - 24 h post: 23.8–25.6 h after garlic consumption
A creatinine kit (Labor+Technik Eberhard Lehmann GmbH, Berlin, Germany) was used to determine the creatinine content in each urine sample. The determination principle of this kit is based on the reaction of creatinine with picric acid under basic conditions (Jaffé reaction). The formed complex was detected photometrically at a wavelength of 492 nm.
For quantification purposes, the deuterated standards ^2H3-AMS, ^2H3-AMSO, and ^2H3-AMSO2 were added to the sample and stirred for 10 min. Subsequently, DCM was added in a ratio of 1:2 (DCM/human urine; v/v) and this solution was stirred for further 30 min at room temperature. To isolate the volatile fraction from the urine samples we then applied SAFE-distillation ([17]), thereby distilling the respective samples at 50°C. After completion of the distillation process, 10 mL of DCM were applied in each case to rinse the SAFE apparatus and to ensure complete transition of the volatile compounds. This process was repeated with another 10 mL of DCM. After thawing, the obtained aqueous distillate phase was extracted three times with 25 mL DCM. The organic phases were combined, dried over anhydrous Na2SO4 and concentrated to a total volume of 100 μL by means of Vigreux distillation and subsequent micro-distillation at 50°C. […]

## C=CCSC [AMS, allyl methyl sulfide]
3 g raw garlic in both studies, milk data ref 20
  concentration in urine compared with human milk: comparable excretion levels in both media
U I, 0.5 h post (0.55 h)
  metabolite concentration in urine: 0.9 µg/kg
  metabolite concentration in urine, creatinine-normalized: 0.1 µg/mmol creatinine
U I, 1 h post (1.03 h)
  metabolite concentration in urine: 0.7 µg/kg
  metabolite concentration in urine, creatinine-normalized: 0.8 µg/mmol creatinine
U I, 2 h post (2.05 h)
  metabolite concentration in urine: 1.7 µg/kg
  metabolite concentration in urine, creatinine-normalized: 0.8 µg/mmol creatinine
U I, 4 h post (4.05 h)
  metabolite concentration in urine: 1.6 µg/kg
  metabolite concentration in urine, creatinine-normalized: 0.2 µg/mmol creatinine
U I, 6 h post (6.05 h)
  metabolite concentration in urine: 1.5 µg/kg
  metabolite concentration in urine, creatinine-normalized: 0.2 µg/mmol creatinine
U I, 8 h post (8.05 h)
  metabolite concentration in urine: 0.7 µg/kg
  metabolite concentration in urine, creatinine-normalized: 0.1 µg/mmol creatinine
U I, 24 h post (25.55 h)
  metabolite concentration in urine: traces^1
  metabolite concentration in urine, creatinine-normalized: traces^1
U I, pre (-0.03 h)
  metabolite concentration in urine: < LOD^1
  metabolite concentration in urine, creatinine-normalized: < LOD^1
U II, 0.5 h post (0.50 h)
  metabolite concentration in urine: 0.5 µg/kg
  metabolite concentration in urine, creatinine-normalized: 0.1 µg/mmol creatinine
U II, 1 h post (1.00 h)
  metabolite concentration in urine: 0.9 µg/kg
  metabolite concentration in urine, creatinine-normalized: 0.3 µg/mmol creatinine
U II, 2 h post (2.00 h)
  metabolite concentration in urine: 0.5 µg/kg
  metabolite concentration in urine, creatinine-normalized: 0.4 µg/mmol creatinine
U II, 4 h post (4.00 h)
  metabolite concentration in urine: 0.7 µg/kg
  metabolite concentration in urine, creatinine-normalized: 0.1 µg/mmol creatinine
U II, 6 h post (6.00 h)
  metabolite concentration in urine: 0.4 µg/kg
  metabolite concentration in urine, creatinine-normalized: 0.04 µg/mmol creatinine
U II, 8 h post (8.00 h)
  metabolite concentration in urine: 0.2 µg/kg
  metabolite concentration in urine, creatinine-normalized: 0.02 µg/mmol creatinine
U II, 24 h post (24.12 h)
  metabolite concentration in urine: traces^1
  metabolite concentration in urine, creatinine-normalized: traces^1
U II, pre (-0.13 h)
  metabolite concentration in urine: < LOD^1
  metabolite concentration in urine, creatinine-normalized: < LOD^1
U III, 0.5 h post (0.53 h)
  metabolite concentration in urine: 0.6 µg/kg
  metabolite concentration in urine, creatinine-normalized: 0.3 µg/mmol creatinine
U III, 1 h post (1.07 h)
  metabolite concentration in urine: 0.6 µg/kg
  metabolite concentration in urine, creatinine-normalized: 0.8 µg/mmol creatinine
U III, 2 h post (2.18 h)
  metabolite concentration in urine: 1.2 µg/kg
  metabolite concentration in urine, creatinine-normalized: 0.7 µg/mmol creatinine
U III, 4 h post (4.35 h)
  metabolite concentration in urine: 0.8 µg/kg
  metabolite concentration in urine, creatinine-normalized: 0.3 µg/mmol creatinine
U III, 6 h post (6.35 h)
  metabolite concentration in urine: 0.6 µg/kg
  metabolite concentration in urine, creatinine-normalized: 0.1 µg/mmol creatinine
U III, 8 h post (8.43 h)
  metabolite concentration in urine: 0.4 µg/kg
  metabolite concentration in urine, creatinine-normalized: 0.1 µg/mmol creatinine
U III, 24 h post (23.90 h)
  metabolite concentration in urine: traces^1
  metabolite concentration in urine, creatinine-normalized: traces^1
U III, pre (-0.03 h)
  metabolite concentration in urine: traces^1
  metabolite concentration in urine, creatinine-normalized: traces^1
U IV, 0.5 h post (0.55 h)
  metabolite concentration in urine: 0.7 µg/kg
  metabolite concentration in urine, creatinine-normalized: 0.1 µg/mmol creatinine
U IV, 1 h post (1.05 h)
  metabolite concentration in urine: 0.7 µg/kg
  metabolite concentration in urine, creatinine-normalized: 0.5 µg/mmol creatinine
U IV, 2 h post (2.12 h)
  metabolite concentration in urine: 0.7 µg/kg
  metabolite concentration in urine, creatinine-normalized: 0.4 µg/mmol creatinine
U IV, 4 h post (4.05 h)
  metabolite concentration in urine: 0.8 µg/kg
  metabolite concentration in urine, creatinine-normalized: 0.2 µg/mmol creatinine
U IV, 6 h post (6.08 h)
  metabolite concentration in urine: 0.6 µg/kg
